Data: patent US6720346B2, “Thiazole benzamide derivatives and pharmaceutical compositions for inhibiting cell proliferation” (Agouron Pharmaceuticals, Inc., priority 2001, dated 2004)
Where a name gives a salt, the structure may show the parent alone.

Legend:
human CDK4/cyclin D3 = target: T1, human CDK4/cyclin D3 (Homo sapiens, UniProt P11802); assay: Inhibition of CDK4/cyclin D retinoblastoma kinase activity (Ki; % inhibition); type: biochemical; details: for Ki: apparent Ki, CDK4/cyclin D3, Rb substrate
T1 construct: made in house; host or cells: insect cells co-infected with baculovirus vectors
T1 sequence (P11802 whole entry): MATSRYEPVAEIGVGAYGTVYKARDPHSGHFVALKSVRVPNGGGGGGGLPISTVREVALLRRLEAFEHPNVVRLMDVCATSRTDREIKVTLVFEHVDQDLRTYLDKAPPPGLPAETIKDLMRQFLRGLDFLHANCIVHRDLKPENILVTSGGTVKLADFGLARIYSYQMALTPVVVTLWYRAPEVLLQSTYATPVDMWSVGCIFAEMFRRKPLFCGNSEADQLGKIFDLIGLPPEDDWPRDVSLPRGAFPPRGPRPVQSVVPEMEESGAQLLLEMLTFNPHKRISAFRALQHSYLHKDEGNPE
T1 sequence (P30281 1-264 partner limits assumed): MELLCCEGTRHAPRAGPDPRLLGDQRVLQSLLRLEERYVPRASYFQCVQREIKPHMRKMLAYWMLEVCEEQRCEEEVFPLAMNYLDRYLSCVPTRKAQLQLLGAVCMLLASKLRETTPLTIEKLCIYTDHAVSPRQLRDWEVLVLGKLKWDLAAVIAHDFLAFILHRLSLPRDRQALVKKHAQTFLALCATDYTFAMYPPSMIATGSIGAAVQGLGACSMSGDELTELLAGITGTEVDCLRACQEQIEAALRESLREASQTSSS
Outline: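 Insect-cell-expressed CDK4 with truncated cyclin D3 (1-264), 5 nM, phosphorylating His-tagged Rb fragment (386-928) with 25 μM [32/33P]ATP at pH 7.4, 30 °C, 20 min (60 min for tight binders). Filter capture, phosphorimager read; % inhibition at 30 nM compound, Ki from competitive or tight-binding fits.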

CDK2/cyclin A = target: T2, CDK2/cyclin A (Homo sapiens, UniProt P24941); assay: Inhibition of CDK2/cyclin A retinoblastoma kinase activity (Ki; % inhibition); type: biochemical; details: for Ki: apparent Ki, CDK2/cyclin A, Rb substrate
T2 construct: made in house; host or cells: CDK2: insect cells (baculovirus); cyclin A: E. coli
Outline: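 Radiometric filter assay of CDK2/proteolyzed cyclin A (baculovirus-expressed human CDK2, 10 or 19 nM) phosphorylating an Rb fragment with 25 μM [³²P/³³P]ATP in pH 7.4 HEPES, 2% DMSO, at 30 °C for 60 or 75 min under initial-rate conditions. Library compounds screened at 30 nM for % inhibition; apparent Ki from concentration series fit to competitive or tight-binding inhibition equations.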

HCT-116 cell line = assay: Inhibition of cell growth, MTT tetrazolium salt assay; type: cell-based; details: for IC50: Homo sapiens, HCT-116, 120 h, MTT, three to five days
Outline: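 HCT-116 cells in McCoy's 5A were dosed 4 h after plating with compounds in 0.5% DMSO and grown 3–5 days at 37 °C. Then 0.2 mg/mL MTT was added for 4 h and formazan absorbance read at 540 nm. IC50/IC90 came from semi-log plots against DMSO-only controls.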

[1] = HCT-116 cells, 0.25 μM compound

CDK4 % Inhibition at 0.03 μM (human CDK4/cyclin D3; at 0.03 μM) [%] | CDK2 % Inhibition at 0.03 μM (CDK2/cyclin A; at 0.03 μM) [%] | CDK4 % Inhibition at 0.03 μM (human CDK4/cyclin D3; 0.03 μM compound) [%] | CDK2 % Inhibition at 0.03 μM (CDK2/cyclin A; 0.03 μM compound) [%] | SMILES | HCT-116 % Inhibition at 0.25 μM (HCT-116 cell line; HCT-116, at 0.25 μM) [%] | HCT-116 % Inhibition at 0.1 μM (HCT-116 cell line; HCT-116 cells, 0.1 μM compound) [%] | HCT-116 % Inhibition at 0.25 μM (HCT-116 cell line; [1]) [%] | further results
– | – | 15 | 38 | Nc1nc(Nc2ccc(C(=O)NCC3COc4ccccc4O3)cc2)sc1C(=O)c1c(F)cccc1F (centres unmarked) [Example G367] | – | 22 | 71 | –
– | – | 27 | 30 | Nc1nc(Nc2ccc(C(=O)NCc3ccc(C(F)(F)F)cc3)cc2)sc1C(=O)c1c(F)cccc1F [Example G261] | – | 26 | 69 | –
– | – | 19 | 13 | Nc1nc(Nc2ccc(C(=O)NCCc3ccccc3F)cc2)sc1C(=O)c1c(F)cccc1F [Example G206] | – | 13 | 58 | –
29 | 22 | – | – | Nc1nc(Nc2ccc(C(=O)NCc3ccccn3)cc2)sc1C(=O)c1c(F)cccc1F [Example G180] | 68 | – | – | HCT-116 % Inhibition at 0.1 μM (HCT-116 cell line; HCT-116, at 0.1 μM): 25%
– | – | 23 | 23 | Nc1nc(Nc2ccc(C(=O)NCCc3ccc(Cl)c(Cl)c3)cc2)sc1C(=O)c1c(F)cccc1F [Example G211] | – | 13 | 45 | –
– | – | −3 | 10 | C[C@@H](CNC(=O)c1ccc(Nc2nc(N)c(C(=O)c3c(F)cccc3F)s2)cc1)c1ccccc1 [Example G375] | – | 26 | 62 | –
38 | 60 | – | – | Nc1nc(Nc2ccc(C(=O)NCCNc3ccccc3)cc2)sc1C(=O)c1c(F)cccc1F [Example G134] | 89 | – | – | HCT-116 % Inhibition at 0.1 μM (HCT-116 cell line; HCT-116, at 0.1 μM): 1%
– | – | 36 | 39 | Nc1nc(Nc2ccc(C(=O)NCc3ccc(Cl)cc3Cl)cc2)sc1C(=O)c1c(F)cccc1F [Example G236] | – | 16 | 66 | –
– | – | 44 | 48 | CCN(CCNC(=O)c1ccc(Nc2nc(N)c(C(=O)c3c(F)cccc3F)s2)cc1)c1cccc(C)c1 [Example G226] | – | 15 | 56 | –
9 | 10 | – | – | CN(Cc1cccnc1)C(=O)c1ccc(Nc2nc(N)c(C(=O)c3c(F)cccc3F)s2)cc1 [Example G20] | 50 | – | – | –
−1 | −4 | – | – | COC(=O)c1ccccc1NC(=O)c1ccc(Nc2nc(N)c(C(=O)c3c(F)cccc3F)s2)cc1 [Example G39] | 65 | – | – | –
– | – | 14 | 14 | Nc1nc(Nc2ccc(C(=O)Nc3ccccc3F)cc2)sc1C(=O)c1c(F)cccc1F [Example G235] | – | 10 | 51 | –

More lines, now with the values behind:

SMILES | CDK4 % Inhibition at 0.03 μM (human CDK4/cyclin D3; at 0.03 μM) [%] | CDK2 % Inhibition at 0.03 μM (CDK2/cyclin A; at 0.03 μM) [%] | CDK4 % Inhibition at 0.03 μM (human CDK4/cyclin D3; 0.03 μM compound) [%] | CDK2 % Inhibition at 0.03 μM (CDK2/cyclin A; 0.03 μM compound) [%] | HCT-116 % Inhibition at 0.25 μM (HCT-116 cell line; HCT-116, at 0.25 μM) [%] | HCT-116 % Inhibition at 0.1 μM (HCT-116 cell line; HCT-116 cells, 0.1 μM compound) [%] | HCT-116 % Inhibition at 0.25 μM (HCT-116 cell line; [1]) [%] | further results
CN(CCc1ccncc1)C(=O)c1ccc(Nc2nc(N)c(C(=O)c3c(F)cccc3F)s2)cc1 [Example G58] | 17 | 19 | – | – | 53 | – | – | –
COCCN(CCOC)C(=O)c1ccc(Nc2nc(N)c(C(=O)c3c(F)cccc3F)s2)cc1 [Example G36] | 6 | −4 | – | – | 62 | – | – | –
Nc1nc(Nc2ccc(C(=O)Nc3ccccc3N3CCOCC3)cc2)sc1C(=O)c1c(F)cccc1F [Example G146] | 7 | 6 | – | – | 52 | – | – | HCT-116 % Inhibition at 0.1 μM (HCT-116 cell line; HCT-116, at 0.1 μM): 1%
COc1ccc(NC(=O)c2ccc(Nc3nc(N)c(C(=O)c4c(F)cccc4F)s3)cc2)cc1OC [Example G212] | – | – | 20 | 16 | – | 17 | 53 | –
Nc1nc(Nc2ccc(C(=O)NCCN3CCOCC3)cc2)sc1C(=O)c1c(F)cccc1F [Example A1, 4-[4-Amino-5-(2,6-difluoro-benzoyl)-thiazol-2-ylamino]-N-(2-morpholin-4-yl-ethyl)-benzamide] | – | – | – | – | – | – | – | Ki (human CDK4/cyclin D3): 0.027 µM; Ki (CDK2/cyclin A): 0.14 µM; IC50 (HCT-116 cell line): 0.75 µM
Nc1nc(Nc2ccc(C(=O)NCCN3CCNC3=O)cc2)sc1C(=O)c1c(F)cccc1F [Example G229] | – | – | 9 | 12 | – | 8 | 44 | –
Cc1cc(NC(=O)c2ccc(Nc3nc(N)c(C(=O)c4c(F)cccc4F)s3)cc2)no1 [Example G393] | – | – | 0 | 8 | – | 8 | 46 | –
CN(C)CC(C)(C)NC(=O)c1ccc(Nc2nc(N)c(C(=O)c3c(F)cccc3F)s2)cc1 [Example A61, 4-[4-Amino-5-(2,6-difluoro-benzoyl)-thiazol-2-ylamino]-N-(2-dimethylamino-1,1-dimethyl-ethyl)-benzamide Dihydrochloride] | – | – | – | – | – | – | – | Ki (human CDK4/cyclin D3): 0.232 µM; Ki (CDK2/cyclin A): 0.0375 µM; IC50 (HCT-116 cell line): 0.22 µM
Nc1nc(Nc2ccc(C(=O)NCC3CCCO3)cc2)sc1C(=O)c1c(F)cccc1F (centres unmarked) [Example G116] | 24 | 7 | – | – | 46 | – | – | HCT-116 % Inhibition at 0.1 μM (HCT-116 cell line; HCT-116, at 0.1 μM): 0%
CN(C)C1CCN(C(=O)c2ccc(Nc3nc(N)c(C(=O)c4c(F)cccc4F)s3)cc2)C1 (centres unmarked) [Example G37] | 25 | 11 | – | – | – | – | – | HCT-116 % Inhibition at 0.25 μM (HCT-116 cell line; HCT-116, at 0.25 μM, 0.25 µM): 65%
Nc1nc(Nc2ccc(C(=O)N3CCN(C=O)CC3)cc2)sc1C(=O)c1c(F)cccc1F [Example G78] | 13 | 11 | – | – | 58 | – | – | –
Nc1nc(Nc2ccc(C(=O)NCCCCCO)cc2)sc1C(=O)c1c(F)cccc1F [Example G274] | – | – | 5 | −4 | – | 15 | 47 | –
COC(=O)[C@H](C(C)C)N(C)C(=O)c1ccc(Nc2nc(N)c(C(=O)c3c(F)cccc3F)s2)cc1 [Example G77] | 6 | 9 | – | – | 51 | – | – | –
COc1ccc(CCN(C)C(=O)c2ccc(Nc3nc(N)c(C(=O)c4c(F)cccc4F)s3)cc2)cc1OC [Example G361] | – | – | −1 | −3 | – | 26 | 48 | –
Cc1ccncc1C(=O)c1sc(Nc2ccc(C(=O)NC[C@@H]3CCCN3C)cc2)nc1N [Example A59, 4-{4-Amino-5-[1-(4-methyl-pyridin-3-yl)methanoyl]-thiazol-2-ylamino}-N-(1-methyl-pyrrolidin-2S-ylmethyl)-benzamide Hydrochloride Salt] | – | – | – | – | – | – | – | Ki (human CDK4/cyclin D3): 0.097 µM; Ki (CDK2/cyclin A): 0.83 µM; IC50 (HCT-116 cell line): 2.9 µM
CCN(C)C(=O)c1ccc(Nc2nc(N)c(C(=O)c3c(F)cccc3F)s2)cc1 [Example G290] | – | – | −2 | −12 | – | 2 | 39 | –
CC(C)OCCNC(=O)c1ccc(Nc2nc(N)c(C(=O)c3c(F)cccc3F)s2)cc1 [Example A7, 4-[4-Amino-5-(2,6-difluoro-benzoyl)-thiazol-2-ylamino]-N-(2-isopropoxy-ethyl)-benzamide] | – | – | – | – | – | – | – | Ki (human CDK4/cyclin D3): 0.026 µM; Ki (CDK2/cyclin A): 0.061 µM; IC50 (HCT-116 cell line): 0.41 µM
CN1CC[C@@H](NC(=O)c2ccc(Nc3nc(N)c(C(=O)c4c(F)cccc4F)s3)cc2)C1 [Example A30, 4-[4-Amino-5-(2,6-difluoro-benzoyl)-thiazol-2-ylamino]-N-(1-methyl-pyrrolidin-3R-yl)-benzamide] | – | – | – | – | – | – | – | Ki (human CDK4/cyclin D3): 0.007 µM; Ki (CDK2/cyclin A): 0.069 µM; IC50 (HCT-116 cell line): 0.09 µM
Nc1nc(Nc2ccc(C(=O)Nc3ccc(Nc4ccccc4)cc3)cc2)sc1C(=O)c1c(F)cccc1F [Example G305] | – | – | 11 | −6 | – | 29 | 81 | –
CC(C)(CNC(=O)c1ccc(Nc2nc(N)c(C(=O)c3c(F)cccc3F)s2)cc1)N1CCCCC1 [Example A52, 4-[4-Amino-5-(2,6-difluoro-benzoyl)-thiazol-2-ylamino]-N-(2-methyl-2-piperidin-1-yl-propyl)-benzamide] | – | – | – | – | – | – | – | Ki (human CDK4/cyclin D3): 0.009 µM; Ki (CDK2/cyclin A): 0.17 µM; IC50 (HCT-116 cell line): 0.13 µM
CC(NC(=O)c1ccc(Nc2nc(N)c(C(=O)c3c(F)cccc3F)s2)cc1)C1CCCCC1 (centres unmarked) [Example G388] | – | – | – | – | – | – | – | CDK4 % Inhibition at 0.03 μM (human CDK4/cyclin D3; 0.03 μM compound, 0.03 µM): 8%; CDK2 % Inhibition at 0.03 μM (CDK2/cyclin A; 0.03 μM compound, 0.03 µM): 3%; HCT-116 % Inhibition at 0.1 μM (HCT-116 cell line; HCT-116 cells, 0.1 μM compound, 0.1 µM): 9%; HCT-116 % Inhibition at 0.25 μM (HCT-116 cell line; HCT-116 cells, 0.25 μM compound, 0.25 µM): 45%
